From article PMC4321377, “Multiple signals modulate the activity of the complex sensor kinase TodS” (Microbial Biotechnology, 2014)

Target: T1, TodS (Pseudomonas putida, UniProt E0X9C7)
T1 construct: full-length TodS, N-terminal His tag
Assay: autophosphorylation assay with [γ-32P]ATP of purified TodS; ITC showed an exothermic chemical reaction
Format: biochemical

T1 sequence (E0X9C7 whole entry): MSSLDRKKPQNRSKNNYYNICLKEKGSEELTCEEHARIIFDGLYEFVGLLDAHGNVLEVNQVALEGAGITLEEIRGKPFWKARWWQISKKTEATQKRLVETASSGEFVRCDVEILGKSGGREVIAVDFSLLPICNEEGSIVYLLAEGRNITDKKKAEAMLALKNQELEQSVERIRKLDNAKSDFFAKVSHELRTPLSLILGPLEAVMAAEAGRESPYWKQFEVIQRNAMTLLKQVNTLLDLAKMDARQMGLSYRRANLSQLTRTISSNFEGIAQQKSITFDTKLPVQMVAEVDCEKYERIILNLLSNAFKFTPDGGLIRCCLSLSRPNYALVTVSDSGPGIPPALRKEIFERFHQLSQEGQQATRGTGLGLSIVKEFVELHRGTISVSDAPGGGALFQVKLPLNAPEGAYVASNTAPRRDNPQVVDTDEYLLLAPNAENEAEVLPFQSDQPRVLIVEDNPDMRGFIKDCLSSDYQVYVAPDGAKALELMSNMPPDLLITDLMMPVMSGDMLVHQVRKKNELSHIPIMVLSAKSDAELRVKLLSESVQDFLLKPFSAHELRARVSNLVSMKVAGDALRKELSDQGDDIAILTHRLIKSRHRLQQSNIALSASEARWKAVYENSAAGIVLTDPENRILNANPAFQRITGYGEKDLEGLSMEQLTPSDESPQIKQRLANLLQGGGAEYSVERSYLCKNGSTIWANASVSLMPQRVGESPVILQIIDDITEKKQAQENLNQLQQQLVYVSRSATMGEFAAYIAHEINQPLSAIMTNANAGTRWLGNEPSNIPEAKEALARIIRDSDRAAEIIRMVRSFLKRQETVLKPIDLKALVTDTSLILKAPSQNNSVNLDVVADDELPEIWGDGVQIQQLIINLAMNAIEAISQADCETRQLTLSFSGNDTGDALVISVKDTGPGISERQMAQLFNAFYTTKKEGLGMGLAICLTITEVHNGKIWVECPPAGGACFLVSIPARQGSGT

EC50: 170 ± 25 µM
Compound: CC1=CC(=O)c2ccccc2C1=O [menadione, 2-methyl-l,4-naphthoquinone]
